This is an account of results in patent US20030166139A1 (priority 2001, published 2003).

The test system of one series is EDIM rotavirus. Set-up: species or system mice. Particulars: mouse, in vivo.
For series [1] the following is noted: in vivo; cited from earlier work.

Like-named read-outs stand apart in the source and are kept apart here.

“FSFPRVINSADGATTWYFNPVILRPNNVEV [compound 3]”: the “% Protection” value in the series with EDIM rotavirus is listed as 58%.
Still for that read-out and setting: with RNFDTIRLSFQLMRPPNMTPAVTAL [Peptide #6] the figure was 85%; with “MTPAVTALFPNAQPFEHHATVGLTLRIDSA [compound 7]”, 0%; with “QEYAIPVGPVFPPGMNWTDLITNYSPSRED [compound 10]”, 0%.
On the same count and under the same terms, with RLSFQLMRPPNMTP [Peptide #6-14] the figure was 98%.
Still for that read-out and setting: with “NGQVINTYQARFGTIVARNFDTIRLSFQLM [compound 5]” the figure was 0%; with VLADASETMLANVTSVRQEYAI [compound 9], 0%.
As to QS-21 [reference compound], the “safety in human clinical trials” value in series [1] is on record as “safe”. Besides, the “% Protection from rotavirus shedding” value with EDIM rotavirus turned out to be 43%; in the series with EDIM rotavirus (po), 71%.
“TDLITNYSPSREDNLQRVFTVASIRSMLVK [compound 11]”: the “% Protection” value in the series on EDIM rotavirus stood at 65%.
Same read-out and setting: with CAINAPANIQQFEHIVQLRRVLTTA [compound 1] the figure was 0%; with PDAERFSFPRVINSADGA [compound 2], 70%.
On to “HATVLTLRIDSAICESVLADASETMLANV [compound 8]”, for which, in the series on EDIM rotavirus, the “% Protection” value was 51%.
“FNPVILRPNNVEVEFLLNGQVINTYQARF [compound 4]”: in the series on EDIM rotavirus, the “% Protection” value was 77%.
